Consider six compounds from US11578074B2, “Nitrogenous heterocyclic compound, preparation method, intermediate, composition, and application” (SHANGHAI PHARMACEUTICALS HOLDING CO., LTD., priority 2017, dated 2023).

The target of data set [1] is T1, ErbB2 kinase (Homo sapiens, UniProt P04626).
T1 construct: The final concentration of ErbB2 kinase was 0.06 ng/μL
Put plainly: EGFR/ErbB2 enzymatic experiment (HTRF kinEASE-TK), ErbB2. The format is biochemical. The conditions noted are these: ErbB2 kinase 0.06 ng/μL, ATP 4 μM; read-out: Kinase IC50 (nM) in vitro ErbB2. The procedure: (§1) EGFR/ErbB2 Enzymatic Experiment
(§2) Firstly, 1× reaction buffer required for the kinase was prepared, then 5× Enzymatic buffer (HEPES 20 mM pH 7.0, NaN3 0.1%, BSA 0.05%, sodium orthovanadate 0.5 mM) was diluted in HTRF kinEASE-TK kit by 1 time with deionized water, and 50 nM Supplement Enzymatic buffer (SEB REAGENT), 1 mM MnCl2, 5 mM MfCl2, 1 mM DTT were added. Secondly, 5× compound was prepared, and 10 mM test compound storage solution was diluted in multiple steps with DMSO in a 96-well compound plate to prepare 100× compound as an initial concentration, which was then used as the first concentration to carry out a 3-fold gradient dilution with DMSO to obtain a total of 10 concentrations. Then 1 μL of gradient diluent was added to 19 μL of 1× reaction buffer to prepare 5× compound for later use. Then 2 μL of 5× compound was transferred from the 96-well plate into a 384-well plate. To the compound-free control wells was added 2 μL of the following liquid: 19 μL of 1× reaction buffer with addition of 1 μL of DMSO. To the blank control well was added 2 μL of 250 mM EDTA. […] In the fourth step of reaction termination, HTRF Detection buffer was used to prepare a mixture of 2×TK Antibody-EU (K) and Sa-XL665, and the amount of TK Antibody-EU (K) was 5 μL per well. After the enzyme reaction was carried out for 30 minutes, 10 μL of the above liquid was added to a 384-well plate, and the reaction was carried out at room temperature for 1 hour. […] RFU665 nM and RFU620 nM were measured, and RFU665 nM/RFU620 nM×10000 was used as final data for analysis.
Background: TR-FRET usually uses a lanthanide donor and a delayed reading to cut background.

The subject of data set [2] is BT-474 (human breast cancer cell). Put plainly: In vitro proliferation inhibition assay of cell lines (CellTiter-Glo), BT-474. The conditions noted are these: BT-474 cells, 72 hours. The format is cell-based. How it is done:
(§3) In Vitro Proliferation Inhibition Assay of Cell Lines
1. […] 2. Dosing to the cells: on the second day of the experiment, the microplate was taken out from the incubator, and 10 μL of 10× compound was added to each well of the microplate, setting 2 duplicate wells for each drug concentration and 9 dosing concentrations for each compound. According to different cell lines, the initial concentration of each compound was different. Upon completion of addition, the microplate was placed under the conditions of 37° C. and 5% CO2 for 72 hours. 3. Data acquisition: the microplate was taken out from the incubator and was allowed to equilibrate at room temperature for 30 minutes. 100 μL of CellTiter-Glo® Luminescent Cell Viability Assay reaction solution which had been equilibrated at room temperature was added to each well, and the reaction solution was shaken at 1300 rpm for 2 minutes at room temperature. After that, the microplate was placed in HERAEUS Multifuge X1R centrifuge, centrifuged at 2000 rpm for 1 minute, and allowed to equilibrate at room temperature for 10 minutes. The fluorescence signal value was measured on EnVision™.
On the technique in general: ATP-based viability assays read luminescence as a measure of living cells.

The target in data set [3] is EGFR kinase (Homo sapiens, UniProt P00533). In words: EGFR/ErbB2 enzymatic experiment (HTRF kinEASE-TK), EGFR. The format is biochemical. As to conditions: EGFR kinase 0.06 units/μL, ATP 1.65 μM; read-out: Kinase IC50 (nM) in vitro EGFR. The procedure:
as §1, §2

Data set [4] has as its target T2, CYP2C19 (Homo sapiens, UniProt P33261).
T2 construct: A system of 100 μL human liver microsomes; from tissue; host or cells: human liver microsomes
Put plainly: Direct inhibition (DI) of CYP2C19 in human liver microsomes. The conditions noted are these: probe Mephenytoin, human liver microsomes 0.2 mg/mL, 10 μM compound, read-out: Direct inhibition (DI) 2C19 (Mephenytoin). The format is in vitro ADME. The procedure: (§4) Study on Direct Inhibition (DI) of CYP3A4, CYP2D6, CYP2C9, CYP2C19, CYP1A2
(§5) A system of 100 μL human liver microsomes (final concentration: 0.2 mg/mL) was used for direct inhibition under warm incubation. The system contained NADPH (final concentration: 1 mM), 10 μM compound, a positive inhibitor cocktail (Ketoconazole 10 μM, Quinidine: 10 μM, Sulfaphenazole: 100 μM, Naphthoflavone: 10 μM, Tranylcypromene 1000 μM), a negative control 10 μM DMSO and mixed probe substrates (Midazolam 10 μM, Testosterone 100 μM, Dextromethophan 10 μM, Diclofenac 20 μM, Phenetin 100 μM, Mephenytoin 100 μM). The reaction was terminated after incubation for 20 minutes. The relative activity of the enzymes was calculated by measuring the relative production of metabolites.
(In general: Liver microsomes are vesicles of endoplasmic reticulum, rich in cytochrome P450 enzymes.)

Data set [5] has as its target T3, CYP3A4 (Homo sapiens, UniProt P08684).
T3 construct: A system of 100 μL human liver microsomes; from tissue; host or cells: human liver microsomes
Put plainly: Direct inhibition (DI) of CYP3A4 in human liver microsomes. As to conditions: human liver microsomes 0.2 mg/mL, 10 μM compound. The format is in vitro ADME. The procedure: as §4, §5

Data set [6] deals with T4, CYP1A2 (Homo sapiens, UniProt P05177).
T4 construct: A system of 100 μL human liver microsomes; from tissue; host or cells: human liver microsomes
T4 sequence (P05177 1-516): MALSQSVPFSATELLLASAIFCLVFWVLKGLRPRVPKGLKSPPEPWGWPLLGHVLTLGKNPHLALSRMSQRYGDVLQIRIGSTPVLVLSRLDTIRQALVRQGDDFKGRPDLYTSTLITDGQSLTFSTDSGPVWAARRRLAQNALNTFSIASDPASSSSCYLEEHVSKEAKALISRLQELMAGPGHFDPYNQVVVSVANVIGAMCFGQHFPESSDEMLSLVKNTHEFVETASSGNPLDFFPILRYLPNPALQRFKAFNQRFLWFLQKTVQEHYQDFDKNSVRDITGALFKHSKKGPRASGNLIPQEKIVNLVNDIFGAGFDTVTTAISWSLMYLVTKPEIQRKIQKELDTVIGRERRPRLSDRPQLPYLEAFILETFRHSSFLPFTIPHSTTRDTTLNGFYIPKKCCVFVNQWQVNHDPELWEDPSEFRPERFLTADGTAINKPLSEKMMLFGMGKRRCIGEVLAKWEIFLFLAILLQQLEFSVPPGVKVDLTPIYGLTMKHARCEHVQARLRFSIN
In words: Direct inhibition (DI) of CYP1A2 in human liver microsomes. The format is in vitro ADME. The conditions noted are these: probe Phenacetin, human liver microsomes 0.2 mg/mL, 10 μM compound, read-out: Direct inhibition (DI) 1A2 (Phenacetin). How it is done:
as §4, §5

Data set [7] has as its target T5, CYP2D6 (Homo sapiens, UniProt P10635).
T5 construct: A system of 100 μL human liver microsomes; from tissue; host or cells: human liver microsomes
In words: Direct inhibition (DI) of CYP2D6 in human liver microsomes. The format is in vitro ADME. The conditions noted are these: probe Dextromethorphan, human liver microsomes 0.2 mg/mL, 10 μM compound, read-out: Direct inhibition (DI) 2D6 (Dextromethorphan). How it is done: as §4, §5

For data set [8], the system named is N87 (human gastric cancer cell NCI-N87). Put plainly: In vitro proliferation inhibition assay of cell lines (CellTiter-Glo), N87. The format is cell-based. As to conditions: N87 cells, 72 hours. How it is done:
as §3
1. Cell culture and inoculation: on the first day of the experiment, normal cultured cells were taken, and in the exponential growth state, after digestion and dispersion, the cell density was then adjusted to 8.8×10^4 cells/mL for BT-474, and 6.6×10^4 cells/mL for N87, and 90 μL of which were inoculated to each well of a 96-well cell culture plate; after the inoculation was completed, the microplate was cultured under the conditions of 37° C. and 5% CO2 overnight. 2. Dosing to the cells: on the second day of the experiment, the microplate was taken out from the incubator, and 10 μL of 10× compound was added to each well of the microplate, setting 2 duplicate wells for each drug concentration and 9 dosing concentrations for each compound. According to different cell lines, the initial concentration of each compound was different. Upon completion of addition, the microplate was placed under the conditions of 37° C. and 5% CO2 for 72 hours. 3. Data acquisition: the microplate was taken out from the incubator and was allowed to equilibrate at room temperature for 30 minutes. 100 μL of CellTiter-Glo® Luminescent Cell Viability Assay reaction solution which had been equilibrated at room temperature was added to each well, and the reaction solution was shaken at 1300 rpm for 2 minutes at room temperature. After that, the microplate was placed in HERAEUS Multifuge X1R centrifuge, centrifuged at 2000 rpm for 1 minute, and allowed to equilibrate at room temperature for 10 minutes. The fluorescence signal value was measured on EnVision™.

For data set [9], the target named is T6, CYP2C9 (Homo sapiens, UniProt P11712).
T6 construct: A system of 100 μL human liver microsomes; from tissue; host or cells: human liver microsomes
Put plainly: Direct inhibition (DI) of CYP2C9 in human liver microsomes. The format is in vitro ADME. As to conditions: probe Diclofenac, human liver microsomes 0.2 mg/mL, 10 μM compound, read-out: Direct inhibition (DI) 2C9 (Diclofenac). The procedure:
as §4, §5

The mark [10] stands for this setting: probe Midazolam, read-out: Direct inhibition (DI) 3A4 (Midazolam).
The mark [11] stands for this setting: probe Testosterone, read-out: Direct inhibition (DI) 3A4 (testosterone).

Each structure is given as a SMILES string. Read-outs that look alike come from different tables or passages of the source.

EGFR kinase, sequence (P00533 25-1210): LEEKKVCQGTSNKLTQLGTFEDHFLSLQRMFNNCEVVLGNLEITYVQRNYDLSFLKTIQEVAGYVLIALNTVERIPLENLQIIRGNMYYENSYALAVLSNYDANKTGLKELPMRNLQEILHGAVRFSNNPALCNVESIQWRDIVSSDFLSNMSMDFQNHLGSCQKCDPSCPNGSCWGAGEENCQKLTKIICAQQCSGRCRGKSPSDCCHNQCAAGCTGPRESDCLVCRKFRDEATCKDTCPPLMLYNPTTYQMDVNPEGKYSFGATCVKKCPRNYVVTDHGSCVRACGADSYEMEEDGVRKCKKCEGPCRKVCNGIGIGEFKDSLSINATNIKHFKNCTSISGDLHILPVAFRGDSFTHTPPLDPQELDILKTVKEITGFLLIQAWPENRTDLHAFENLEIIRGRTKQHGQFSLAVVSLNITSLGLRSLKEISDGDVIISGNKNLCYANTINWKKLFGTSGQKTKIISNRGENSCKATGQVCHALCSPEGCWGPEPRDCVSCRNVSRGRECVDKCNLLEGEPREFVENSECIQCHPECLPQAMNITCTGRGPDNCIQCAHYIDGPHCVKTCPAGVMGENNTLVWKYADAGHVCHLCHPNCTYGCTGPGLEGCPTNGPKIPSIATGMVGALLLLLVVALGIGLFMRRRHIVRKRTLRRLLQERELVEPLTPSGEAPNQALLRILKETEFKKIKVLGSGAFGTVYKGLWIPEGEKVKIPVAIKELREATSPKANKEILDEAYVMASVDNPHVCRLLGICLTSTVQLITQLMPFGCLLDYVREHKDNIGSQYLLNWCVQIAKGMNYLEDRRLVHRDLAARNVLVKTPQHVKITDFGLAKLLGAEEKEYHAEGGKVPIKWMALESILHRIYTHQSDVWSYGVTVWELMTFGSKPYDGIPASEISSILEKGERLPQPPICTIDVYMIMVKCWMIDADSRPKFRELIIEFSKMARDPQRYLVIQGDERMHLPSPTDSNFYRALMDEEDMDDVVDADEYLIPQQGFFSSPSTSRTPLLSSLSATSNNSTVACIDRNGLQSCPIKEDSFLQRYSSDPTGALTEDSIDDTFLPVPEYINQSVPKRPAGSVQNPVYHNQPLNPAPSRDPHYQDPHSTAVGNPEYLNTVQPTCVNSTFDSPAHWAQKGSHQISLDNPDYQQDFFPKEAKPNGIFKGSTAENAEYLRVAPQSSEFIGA
T1 sequence (P04626 23-1255): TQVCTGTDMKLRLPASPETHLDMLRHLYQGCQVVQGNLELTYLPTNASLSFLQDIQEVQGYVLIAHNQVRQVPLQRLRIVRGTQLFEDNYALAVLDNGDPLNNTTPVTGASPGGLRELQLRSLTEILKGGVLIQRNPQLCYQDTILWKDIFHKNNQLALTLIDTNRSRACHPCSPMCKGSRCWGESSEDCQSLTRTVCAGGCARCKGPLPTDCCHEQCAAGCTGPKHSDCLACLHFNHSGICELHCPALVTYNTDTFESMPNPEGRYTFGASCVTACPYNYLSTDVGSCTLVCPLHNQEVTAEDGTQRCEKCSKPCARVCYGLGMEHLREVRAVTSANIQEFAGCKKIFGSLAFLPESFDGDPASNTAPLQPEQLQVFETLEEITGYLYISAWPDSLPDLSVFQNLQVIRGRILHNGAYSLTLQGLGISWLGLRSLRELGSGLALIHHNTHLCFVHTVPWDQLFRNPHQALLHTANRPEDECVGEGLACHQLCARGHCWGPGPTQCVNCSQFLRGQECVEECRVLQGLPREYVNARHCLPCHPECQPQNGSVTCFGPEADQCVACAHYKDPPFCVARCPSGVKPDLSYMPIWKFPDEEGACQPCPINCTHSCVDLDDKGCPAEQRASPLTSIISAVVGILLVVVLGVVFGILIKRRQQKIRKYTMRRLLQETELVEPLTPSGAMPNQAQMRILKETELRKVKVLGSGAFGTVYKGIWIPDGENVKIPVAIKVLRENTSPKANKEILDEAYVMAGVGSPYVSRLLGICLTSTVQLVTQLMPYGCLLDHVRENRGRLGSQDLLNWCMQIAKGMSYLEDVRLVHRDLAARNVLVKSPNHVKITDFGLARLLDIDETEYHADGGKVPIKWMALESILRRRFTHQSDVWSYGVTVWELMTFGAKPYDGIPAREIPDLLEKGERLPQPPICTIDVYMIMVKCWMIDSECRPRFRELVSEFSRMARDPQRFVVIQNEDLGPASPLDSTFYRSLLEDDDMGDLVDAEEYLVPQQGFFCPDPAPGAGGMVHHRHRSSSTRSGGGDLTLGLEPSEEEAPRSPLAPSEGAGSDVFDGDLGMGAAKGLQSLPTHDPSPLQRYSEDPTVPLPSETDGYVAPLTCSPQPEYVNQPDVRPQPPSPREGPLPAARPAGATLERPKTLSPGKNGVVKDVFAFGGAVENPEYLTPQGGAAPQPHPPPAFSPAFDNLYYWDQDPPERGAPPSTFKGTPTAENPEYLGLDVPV
T3 sequence (P08684 whole entry): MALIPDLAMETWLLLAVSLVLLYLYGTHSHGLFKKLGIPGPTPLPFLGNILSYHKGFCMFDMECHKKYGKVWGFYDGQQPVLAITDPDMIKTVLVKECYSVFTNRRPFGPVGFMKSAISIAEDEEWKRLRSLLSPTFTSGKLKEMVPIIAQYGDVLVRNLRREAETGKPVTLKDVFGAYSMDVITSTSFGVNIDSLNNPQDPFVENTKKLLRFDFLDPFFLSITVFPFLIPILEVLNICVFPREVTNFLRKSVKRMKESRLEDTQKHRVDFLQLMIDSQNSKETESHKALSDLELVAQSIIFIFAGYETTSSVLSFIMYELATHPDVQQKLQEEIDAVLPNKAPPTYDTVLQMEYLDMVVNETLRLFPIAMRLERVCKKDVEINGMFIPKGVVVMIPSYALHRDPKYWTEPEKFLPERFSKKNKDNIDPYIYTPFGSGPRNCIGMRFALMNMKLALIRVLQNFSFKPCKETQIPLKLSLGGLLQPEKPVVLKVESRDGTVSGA
T6 sequence (P11712 whole entry): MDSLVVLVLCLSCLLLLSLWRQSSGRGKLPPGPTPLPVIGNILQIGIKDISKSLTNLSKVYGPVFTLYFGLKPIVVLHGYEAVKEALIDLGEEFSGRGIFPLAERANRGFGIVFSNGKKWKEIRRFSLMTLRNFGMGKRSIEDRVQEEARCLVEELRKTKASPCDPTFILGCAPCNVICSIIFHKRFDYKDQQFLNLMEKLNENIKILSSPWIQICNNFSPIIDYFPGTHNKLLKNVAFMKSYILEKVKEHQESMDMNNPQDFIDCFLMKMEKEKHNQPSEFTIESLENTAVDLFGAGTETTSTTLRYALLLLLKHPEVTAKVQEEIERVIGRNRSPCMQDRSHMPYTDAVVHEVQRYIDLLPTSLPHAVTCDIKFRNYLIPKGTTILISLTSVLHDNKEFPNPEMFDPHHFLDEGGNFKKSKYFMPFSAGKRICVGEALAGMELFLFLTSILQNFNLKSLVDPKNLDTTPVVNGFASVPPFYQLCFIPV
T5 sequence (P10635 whole entry): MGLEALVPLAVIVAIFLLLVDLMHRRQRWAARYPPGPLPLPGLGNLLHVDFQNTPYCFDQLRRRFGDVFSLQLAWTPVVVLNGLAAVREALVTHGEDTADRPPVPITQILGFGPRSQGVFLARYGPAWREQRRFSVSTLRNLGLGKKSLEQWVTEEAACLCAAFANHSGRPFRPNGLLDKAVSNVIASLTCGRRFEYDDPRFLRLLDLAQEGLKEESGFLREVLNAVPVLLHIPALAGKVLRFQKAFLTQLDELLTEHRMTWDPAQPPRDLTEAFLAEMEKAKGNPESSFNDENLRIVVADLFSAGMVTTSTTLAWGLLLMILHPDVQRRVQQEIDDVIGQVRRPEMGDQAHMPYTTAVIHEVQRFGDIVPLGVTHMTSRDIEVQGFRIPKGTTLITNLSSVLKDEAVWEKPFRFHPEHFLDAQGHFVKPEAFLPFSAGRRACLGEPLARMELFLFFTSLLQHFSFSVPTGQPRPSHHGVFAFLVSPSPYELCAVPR
T2 sequence (P33261 whole entry): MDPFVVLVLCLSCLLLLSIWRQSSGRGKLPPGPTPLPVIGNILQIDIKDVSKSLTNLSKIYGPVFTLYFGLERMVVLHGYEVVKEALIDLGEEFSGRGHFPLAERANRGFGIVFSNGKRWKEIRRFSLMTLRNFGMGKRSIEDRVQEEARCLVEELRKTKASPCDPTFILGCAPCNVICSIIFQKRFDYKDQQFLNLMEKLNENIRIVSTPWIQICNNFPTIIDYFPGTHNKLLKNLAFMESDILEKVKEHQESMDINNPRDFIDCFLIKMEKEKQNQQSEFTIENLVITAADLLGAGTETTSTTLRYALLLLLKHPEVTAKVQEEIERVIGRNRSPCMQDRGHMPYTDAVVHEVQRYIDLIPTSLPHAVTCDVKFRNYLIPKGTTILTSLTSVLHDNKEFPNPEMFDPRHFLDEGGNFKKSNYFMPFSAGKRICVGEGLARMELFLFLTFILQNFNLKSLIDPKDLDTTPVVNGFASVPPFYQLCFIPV

Turning to `Cc1cc(Nc2ncnc3ccc(NC(=O)/C=C/[C@H]4CCCN4C)cc23)ccc1Oc1ccn2ncnc2c1` [Final product of Embodiment 20, (R,E)-N-(4-((4-([1,2,4]triazolo[1,5-a]pyridin-7-yloxy)-3-methylphenyl)amino)quinazolin-6-yl)-3-(1-methylpyrrolidin-2-yl)acrylamide], the IC50 in data set [1] amounted to 0.584 nM; in data set [2], 3.23 nM; in data set [3] it was 3.93 nM; in data set [8] it was 2.07 nM. Moreover, the inhibition at 20 min, 10 µM in data set [4] is 7%; in data set [5] (setting [10]), 0%; in data set [5] (setting [11]), 14%; in data set [6], 6%; in data set [7], 61%; in [9], less than 0%.
As to `CN1CCC[C@@H]1/C=C/C(=O)Nc1ccc2ncnc(Nc3ccc(Oc4ccn5ncnc5c4)c(Cl)c3)c2c1` [Final product of Embodiment 26, (R,E)-N-(4-((4-([1,2,4]triazolo[1,5-a]pyridin-7-yloxy)-3-chlorophenyl)amino)quinazolin-6-yl)-3-(1-methylpyrrolidin-2-yl)acrylamide], the IC50 in data set [1] amounted to 0.83 nM; in [2], 5.23 nM; in [3], 2.52 nM; in data set [8] it was 3.55 nM. The inhibition at 20 min, 10 µM was 28% in data set [4]; less than 0% in data set [5] (setting [10]); 5% in [5] (setting [11]); 2% in data set [6]; 85% in data set [7]; 19% in data set [9].
`Cc1cc(Nc2ncnc3ccc(NC(=O)/C=C/[C@H]4CCCN4)cc23)ccc1Oc1ccn2ncnc2c1` [Final product of Embodiment 19, (R,E)-N-(4-((4-([1,2,4]triazolo[1,5-a]pyridin-7-yloxy)-3-methylphenyl)amino)quinazolin-6-yl)-3-(pyrrolidin-2-yl)acrylamide]: the IC50 in [1] was found to be 0.716 nM; in data set [2], 26 nM; in [3] it was 3.97 nM; in [8], 28.4 nM. Besides, the inhibition at 20 min, 10 µM in data set [4] is less than 0%; in [5] (setting [10]), 16%; in data set [5] (setting [11]), 38%; in data set [6] it was 7%; in [7], 60%; in [9], less than 0%.
Consider `Cc1cc(Nc2c(C#N)cnc3ccc(NC(=O)/C=C/[C@H]4CCCN4C)cc23)ccc1Oc1cc2nncn2cn1` [Final product of Embodiment 23, (R,E)-N-(4-((4-([1,2,4]triazolo[4,3-c]pyrimidin-7-yloxy)-3-methylphenyl)amino)-3-cyanoquinolin-6-yl)-3-(1-methylpyrrolidin-2-yl)acrylamide], for which the IC50 in data set [1] was found to be 7.56 nM; in data set [2], 4.2 nM; in [3], 1.62 nM; in data set [8] it was 5.43 nM. In addition, the inhibition at 20 min, 10 µM is 10% in data set [4]; less than 0% in data set [5] (setting [10]); 18% in data set [5] (setting [11]); less than 0% in [6]; 13% in [7]; 1% in data set [9].
On to `CCOc1cc2ncc(C#N)c(Nc3ccc(Oc4cc5nncn5cn4)c(C)c3)c2cc1NC(=O)/C=C/[C@H]1CCCN1` [Final product of Embodiment 32], for which the IC50 was determined as 3.13 nM in data set [1], 4 nM in data set [2], 1.06 nM in data set [3] and 4.2 nM in data set [8]. Moreover, the inhibition at 20 min, 10 µM in data set [4] was 75%; in data set [5] (setting [10]) it was 8%; in [5] (setting [11]), 11%; in data set [6], less than 0%; in [7], 6%; in data set [9], 66%.
Consider `Cc1cc(Nc2ncnc3ccc(NC(=O)/C(F)=C\[C@H]4CCCN4C)cc23)ccc1Oc1ccn2ncnc2c1` [Final product of Embodiment 40], for which the inhibition at 20 min, 10 µM in data set [4] is 18%; in data set [5] (setting [10]), 3%; in [5] (setting [11]), 9%; in data set [6], less than 0%; in data set [7] it was 16%; in data set [9] it was less than 0%.

Broadly, the IC50 is the concentration needed to halve the response being measured. By inhibition is commonly meant the change of the read-out against control, counted positive when it falls.
